{"source": "patent US20240301372A1", "about": "“TREATMENT FOR HSV-1 USING A MEGANUCLEASE” (priority 2021, published 2024)", "system": "HSV-1", "test": "JQ1 reactivation (shedding) mouse model", "type": "in vivo, mice", "details": "for shedding of HSV from mucosal surfaces: 50 mg/kg", "protocol": "FIG. 19. Schematic for JQ1 reactivation experiment. Latent infected mice were divided into three experimental groups to determine the effect of JQ1 on HSV reactivation. As illustrated in the figure, Group 1 and Group 2 were JQ1 groups that received a 50 mg/kg intraperitoneal injection of JQ1. Group 3 was the control group, i.e., no JQ1 injection. Group 1 mice received two injections, the first JQ1 injection at 0 hrs and the second JQ1 injection at 12 hrs. Group 2 mice received one injection at 0 hrs. Group 3 mice received one control injection at 0 hrs. To determine shedding from mucosal surfaces, as an indicator of HSV reactivation, mice were swabbed at 0 hrs (control) and this swab was compared to swabs taken at 24 hours, 48 hours, and 72 hours.\nTo begin, the mouse model for BET induced shedding was verified. In this model, latent infected mice were divided into three experimental groups to determine the effect of the BET inhibitor, JQ1, on HSV-1 reactivation. FIG. 19. As illustrated, Group 1 and Group 2 were JQ1 groups that received 50 mg/kg intraperitoneal injection of JQ1. Group 3 was the control group, i.e., no JQ1 injection. Group 1 mice received two injections, the first JQ1 injection at 0 hrs and the second JQ1 injection at 12 hrs. Group 2 mice received one injection at 0 hrs. Group 3 mice received one control injection at 0 hrs. To determine shedding from mucosal surfaces, as an indicator of HSV-1 reactivation, mice were swabbed at 0 hrs (control) and this swab was compared to swabs taken at 24 hours, 48 hours, and 72 hours. […] FIG. 20B. […] Compare the onset and duration of viral shedding in JQ1 double dose to JQ1 single dose.", "data": [{"smiles": "Cc1sc2c(c1C)C(c1ccc(Cl)cc1)=N[C@@H](CC(=O)OC(C)(C)C)c1nnc(C)n1-2", "note": "[JQ1, tert-butyl (S)-2-(4-(4-chlorophenyl)-2,3,9-trimethyl-6H-thieno[3,2-f][1,2,4]triazolo[4,3-a][1,4]diazepin-6-yl)acetate]", "values": [{"measurement": "time of peak shedding following JQ1 injection", "setting": "single dose 50 mg/kg intraperitoneal", "result": 2, "unit": "days"}, {"measurement": "shedding of HSV from mucosal surfaces", "setting": "single dose 50 mg/kg intraperitoneal at 0 hrs, swabs 24, 48, 72 hours", "result": "Shedding was detected"}, {"measurement": "shedding of HSV from mucosal surfaces", "setting": "two doses 50 mg/kg intraperitoneal at 0 hrs and 12 hrs", "result": "Shedding was also detected"}]}]}
